# Patent US20030017497A1, “Peptide mimotopes of carbohydrate antigens” (priority 1998, published 2003)
# “Also recorded” adds a separate entry of the source. Like-named read-outs stand apart in the source and are kept apart here. Where no end group is shown, it is not given here.
# Columns and labels:
# [1] = system: anti-LeY monoclonal antibody BR55-2; assay: ELISA reaction of MAb BR55-2 with peptides (MAP forms); type: binding; conditions: for ELISA reactivity of BR55-2 with MAP peptide: MAP peptide forms; for binding of peptide to BR55-2 in ELISA: monovalent peptide
# Method: (§1) FIGS. 2A and 2B depict the reactivity of putative motifs by ELISA. […] Constant amounts of BR55-2 were incubates with increasing amounts of MAP peptides, and then reaction of free mAb with LeY was measured by ELISA. Data points reflect 50% inhibition at 2 μg/ml of peptide inhibitor as measured by reduction of O.D. values in ELISA.
# (§2) For example, polyclonal antibodies raised against the motif YYRYD might cross-react with MCP and with LeY. […] To further determine the extent of cross-reactivity for these motifs, peptides were synthesized repeating the respective putative centralized motifs shown in Table 2. It is theorized that the repeating tract should adopt a helix configuration which emulates many extended carbohydrate structures. To evaluate the antigenic mimicry of motif forms, we synthesized respective multiple antigen peptides (MAP) forms for detection of a reactivity pattern with the anti-LeY monoclonal antibodies BR55-2, and 15.6 (also referred to as BR15.6) and the anti-ganglioside antibody ME361 (FIG. 2a). Significant reactive sequences in FIG. 2a correspond to 3 peptides,
# (§3) BR55-2 and 15.6A show distinct binding properties for LeY expressing tumor cells. […] The general mimicry of the K1106, K1105 and K1107 peptides for Le antigens is further assessed by ELISA reactivity with the anti-SA-LeX monoclonal antibody FH-6 (FIG. 3). These peptides are also reactive with this antibody. The significance of this reactivity is that previous reports indicate that peptides might only be reactive with antibodies that isolate them and in fact it is expected that peptide mimotopes might be not true mimics of carbohydrates.
# [2] = system: anti-LeY monoclonal antibody 15.6 (BR15.6, 15.6A); assay: ELISA reaction of MAb 15.6 (BR15-6A) with peptides; type: binding
# Method: as §1, §2
# (§4) BR55-2 and 15.6A show distinct binding properties for LeY expressing tumor cells. […] The general mimicry of the K1106, K1105 and K1107 peptides for Le antigens is further assessed by ELISA reactivity with the anti-SA-LeX monoclonal antibody FH-6 (FIG. 3). These peptides are also reactive with this antibody. […]
# [3] = system: anti-ganglioside antibody ME361; assay: ELISA reaction of MAb ME361 with MAP peptides; type: binding; conditions: MAP peptide forms
# Method: as §1, §2, §4
# [4] = system: anti-SA-LeX monoclonal antibody FH-6; assay: ELISA reactivity of peptides with antibody FH-6; type: binding
# Text: FIG. 3 depicts the reactivity of the anti-sLex antibody FH-6 with MAP peptides.
# as §3
# SKBR3 = assay: Complement dependent cytotoxicity (CDC); type: cell-based, human
# Text: (§5) Anti-carbohydrate antibodies may mediate complement dependent cytotoxicity (CDC) better than cytotoxicity associated with various effector cells. Subsequently, we have initially examined CDC mediation of various sera raised either to peptides or against the multivalent LeY-PAA form. […] We examined the ability of the sera to mediate complement dependent cytotoxicity (CDC) of the SKBR3 and MCF7 human breast adenocarcinoma cell lines, the ovarian tumor cell line OVAR-3 and the human melanoma lines WM793 and SKMEL-28 compared to that of the LeY-PAA generated sera. Positive control antibodies were BR55-2 which mediates CDC of the adenocarcinoma lines, and ME361 which mediates killing of WM793. Negative controls were pre-immune sera, an irrelevant peptide immunogen (C1) and two peptides (G1 and G2) isolated from phage display that are reactive with ME361.
# OVAR-3 = assay: Complement dependent cytotoxicity (CDC); type: cell-based, human
# Text: as §5
# SKME1-28 = assay: Complement dependent cytotoxicity (CDC); type: cell-based, human
# Text: as §5
# WM793 = assay: Complement dependent cytotoxicity (CDC); type: cell-based, human
# Text: as §5
# MCF-7 = assay: Complement dependent cytotoxicity (CDC); type: cell-based, human
# Text: as §5
# [5] = system: BR55-2 binding to LeY-PAA; assay: Inhibition of mAb BR55-2 binding to solid-phase LeY-PAA by soluble MAP peptides (ELISA); conditions: 20 times molar excess of MAP peptide
# Method: as §1, §3
# [6] = ELISA with various synthetic carbohydrate subunit probes; type: binding
# Method: To further evaluate the specificity of the anti-carbohydrate IgG fraction derived from proteosome-conjugate immunized mice, ELISA assays were performed with plates coated with various synthetic carbohydrate subunit probes (FIG. 5a). […] It was observed that the anti-peptide sera (1:100 titer) was reactive with respective carbohydrate probes above background binding. Preferences for antisera against the YPY motif include Fucα1-3GlcNAc representative of LeY, and Lex, the H type 1 structure Fucα1-2Galβ1-3GlcNAc representative of Leb, and the disaccharide Galb1-4Glc which is a major constituent bacterial LOS. […] The antisera reacted with both H type 1 and H type 2 (Fucα1-2Galβ1-4GlcNAc) structures, with the type 1 structure displaying slightly more activity. This may reflect interaction with the common Fucα1-2Gal structure found on type 1 and type 2 structures or functional groups that are shared within the common topography of these two chains.
# In contrast to the proteosome-peptide conjugates, increased specificity for LeY is observed for the MAP forms (FIG. 5b). At 1:50 dilution, the LeY reactivity of the antisera is approximately 3 fold more reactive with LeY than with Leb, Lex-pentasaccharide, SLea, SLex. […] Considering the diminished reactivity against LeX which shares the Galβ1→4(Fucα1→3)GlcNAcβ1 component it would appear that a fraction of antibodies react with a conformational component of LeY, providing for its increased reactivity, or alternatively, the affinity for LeY is increased.
# To further evaluate the specificity of the 1104 peptide we synthesized 1104 as a MAP form and immunized Balb/c mice, with QS-21 as adjuvant and examined its reactivity pattern with various Le synthetic probes by ELISA (FIG. 9). The utility of MAP peptides is in their apparent advantage as immunogens. […] However, the MAPS described above contain T cell epitopes within the peptide sequence. […] We have observed this trend with MAP peptides.
# At 1:50 serum dilution (FIG. 9), we observed about the same level of reduced reactivity for Leb hexasaccharide, LeX-pentasaccharide, sLeX, Lea, and sLea, while higher levels of reactivity are observed for LeY and LeY constituents. […] This selective interaction sets apart reactivities between Leb and LeY, since reactivity is observed for the H type 1 constituent of Leb.
# HIV-1/3B isolate = assay: HIV-1 cell free neutralization; type: cell-based; conditions: Balb/c anti-peptide sera
# Text: FIGS. 7A, 7B and 7C depict anti-peptide sera mediation of HIV-1 cell free neutralization.
# Mannose, sialyl and histo-blood group related carbohydrate epitopes (particularly LeY) are found on the major envelope protein of the human immunodeficiency virus (HIV). Consequently, we examined the extent to which the anti-peptide sera could mediate HIV-1 cell free neutralization. We observed that sera from Balb/c and C57B1/6 mice immunized with P1 or P2, neutralized HIV-1/MN at final dilution's up to 1:64 (FIGS. 7a-c). FIG. 7a illustrates the neutralization of HIV-1/MN by anti-P1 and P2 sera from Balb/c mice. Normal human sera (NHS), as well as the anti-P3 sera, were ineffective at blocking syncytia formnation, whereas human α-HIV-1 sera from 4 different infected patients neutralize cell free virus at dilution's up to 1:64. Sera derived from C57B1/6 mice also followed this profile (FIG. 7b). The isolate specificity was further determined by cell free neutralization of the HIV-1/3B isolate (FIG. 7c).
# [7] = ELISA reactivity of sera of peptide-immunized mice with LeY and Leb; type: in vivo, Balb/c mice; conditions: anti-1104 MAP sera
# Text: The immunological presentation of the putative motifs, (i.e. short or longer peptides, presentation in a helix or beta bend, monovalent or multivalent (clustered forms)) might mimic overlapping epitopes on otherwise different carbohydrate structures. To test this idea, Balb/c mice were immunized with peptide-proteosome conjugates representative of the motifs YYPYD (SEQ ID NO: 6), and YYRYD (SEQ ID NO: 7) or the same peptides as MAP forms that are multiple repeats of the motifs administered with QS-21. Sera were collected 1 week after the last immunization, pooled and tested for reactivity with LeY and Leb. […] Superposition of LeY and Leb structures indicate that despite the change of glycosidic linkage from β1-3 to β1-4 in the type 1 and 2 chains, resulting conformational features of the respective sugar moieties are still shared forming a common topography. The only effective difference is the position of the N-acetyl and hydroxymethyl groups projected on opposite sides of the type 1 and 2 difucosylated structures.
# Sera derived from immunization with the MAP peptides indicate that the IgM isotype is the predominate form, titering out to 1:2000 for the two carbohydrate forms, but displaying significant differences in reactivity for LeY and Leb that are accentuated at 1:100 and 1:500 titer (FIG. 4b). […]
# [8] = target: anti-LeY monoclonal antibody BR55-2; assay: competition ELISA: soluble MAP peptide against solid-phase LeY-PAA for BR55-2 (FIG. 2b)
# [9] = anti-1104 MAP sera, 1:50 serum dilution
# [10] = SKBR3, sera raised to the immunogen, final dilution 1:15
# [11] = OVAR-3, sera raised to the immunogen, final dilution 1:15
# [12] = SKME1-28, sera raised to the immunogen, final dilution 1:15
# [13] = WM793, sera raised to the immunogen, final dilution 1:15
# [14] = MCF-7, sera raised to the immunogen, final dilution 1:15
molecule,measurement,setting,value
"GGGAPWLYGAPWLYGAPWLY [Peptide K61223, triple repeat of the APWLY motif]",ELISA reactivity of BR55-2 with MAP peptide,[1],not reactive; also recorded: little reactivity
same,ELISA reactivity of 15.6 / BR15-6A with peptide,[2],not reactive
same,ELISA reactivity (O.D.) of ME361 with MAP peptide,[3],not reactive
APWLYGPA (Novel Sequence) [reference compound],binding of peptide to BR55-2 in ELISA,[1],does not bind
GGIYYPYDIYYPYDIYYPYD (Novel Sequence) [Peptide K61105],ELISA reactivity with FH-6,[4],also reactive
same,ELISA reactivity of BR55-2 with MAP peptide,[1],reduces the recognition ability
"GVVWRYTAPVHLGDG [Peptide G1, GVVWRYTAPVHLGDG]",averaged percent cytotoxicity,SKBR3,10%
same,averaged percent cytotoxicity,OVAR-3,9%
same,averaged percent cytotoxicity,SKME1-28,75%
same,averaged percent cytotoxicity,WM793,90%
same,averaged percent cytotoxicity,MCF-7,20%
APWLYAP (Novel Sequence) [reference compound],binding of peptide to BR55-2 in ELISA,[1],negative
same,ELISA reactivity of 15.6 / BR15-6A with peptide,[2],negative
"LDVVLAWRDGLSGAS [Peptide G2, LDVVLAWRDGLSGAS]",averaged percent cytotoxicity,SKBR3,13%
same,averaged percent cytotoxicity,OVAR-3,11%
same,averaged percent cytotoxicity,SKME1-28,87%
same,averaged percent cytotoxicity,WM793,90%
same,averaged percent cytotoxicity,MCF-7,15%
GGYYRYDIYYRYDIYYRYD (Novel Sequence) [Peptide K61107],inhibition of BR55-2 binding to LeY,[5],50%
same,ELISA reactivity with FH-6,[4],also reactive
same,ELISA reactivity of BR55-2 with MAP peptide,[1],bound very well
same,less reactivity with Lea and Sialyl-Lex,"[6]; antisera to MAP, 1:50 dilution",about 1 fold
"GGIYWRYDIYWRYDIYWRYD (Novel Sequence) [Peptide P2, elsewhere called YYRYD motif]",neutralization of HIV-1/3B infection in vitro,HIV-1/3B isolate,effective in neutralizing
same,averaged percent cytotoxicity,SKBR3,80%
same,averaged percent cytotoxicity,OVAR-3,84%
same,averaged percent cytotoxicity,SKME1-28,13%
same,averaged percent cytotoxicity,WM793,9%
same,averaged percent cytotoxicity,MCF-7,29%
IMILLIFSLLWFGGA (Novel Sequence) [Peptide B1],ELISA reactivity with FH-6,[4],does not react
same,serum reactivity with Fucal-3GlcNAc,[6]; [9],best reactivity
same,serum reactivity with Fucα1-4GIcNAc,[6]; [9],significantly reduced reactivity
same,serum reactivity with Galβ1-3Gal,[6]; [9],Minimal binding
same,averaged percent cytotoxicity,SKBR3; [10],90%
same,averaged percent cytotoxicity,OVAR-3; [11],85%
same,averaged percent cytotoxicity,SKME1-28; [12],10%
same,averaged percent cytotoxicity,WM793; [13],10%
same,averaged percent cytotoxicity,MCF-7; [14],70%
same,increase in reactivity for LeY over Leb,[7],three to fold increase
same,isotype of anti-peptide sera,[7],predominately of IgM isotype
GGIYWRYDIYWRYDIYWRYD (Novel Sequence) [Peptide K61106],inhibition of BR55-2 binding to LeY,[5],50%
same,ELISA reactivity with FH-6,[4],also reactive
same,ELISA reactivity of BR55-2 with MAP peptide,[1],bound very well
GGIYYPYDIYYPYDIYYPYD (Novel Sequence) [Peptide P1],neutralization of HIV-1/3B infection in vitro,HIV-1/3B isolate,effective in neutralizing
same,averaged percent cytotoxicity,SKBR3; [10],90%
same,averaged percent cytotoxicity,OVAR-3; [11],89%
same,averaged percent cytotoxicity,SKME1-28; [12],10%
same,averaged percent cytotoxicity,WM793; [13],9%
same,averaged percent cytotoxicity,MCF-7; [14],66%
"GGIYWRYDIYWRYDIYWRYD (also: multiple antigen peptide (MAP) form, branches and core not given here) [K61106 MAP peptide …]",molar excess giving 50% inhibition (times molar excess),[8],20
"GGYYRYDIYYRYDIYYRYD (also: multiple antigen peptide (MAP) form, branches and core not given here) [K61107 MAP peptide …]",molar excess giving 50% inhibition (times molar excess),[8],20
